System: Trypanosoma brucei
Assay: ALAMARBLUE cell viability / growth assay of T. brucei cells
Type: cell-based
Conditions: T. brucei, 72 hours, normalized to DMSO control
Protocol: To determine cell growth rate, WT and two TbRPA1 RNAi KD strains (KD1 and KD2) were seeded at a density of 1×10^5 cells/ml and cultured with or without tetracycline for the induction of RNAi. Cells were counted every 12 hours for 2 days. To determine the viability of TbRPA1-depleted cells, ALAMARBLUE® assay (Thermo Fisher, an established colorimetric technique that detects metabolically active cells) was used. Cells from each time point were incubated with ALAMARBLUE® dye for 4-6 hours and percentage of live cells was determined by measuring resorufin converted from resazurin by reducing environment of live cells. Synergy H1 microplate reader (BioTek) was used with 560/590 nm (excitation/emission) filter settings and Relative Fluorescence Unit (RFU) values were obtained. The percentage of viable cells were calculated from the RFU values.
The initial assessment of JC-229's inhibitory effect on T. brucei cell growth was performed at 50 μM concentration. Trypanosome cells were seeded at 1×10^3 cells/ml density in 180 μl in a 96-well culture plate in triplicate. These cells were incubated with 50 μM JC-229 for 24, 48, and 72 hours. DMSO was used as a vehicle control at 0.0075%. JC-229-treated culture and control cultures were analyzed with the ALAMARBLUE® dye as described above.
To obtain the EC50 value of JC-229, T. brucei cells were seeded at 1×10^3 cells/ml density in 180 μl in a 96-well culture plate in triplicate. These cells were incubated for 72 hours with increasing concentrations of JC-229, (0.5 μM to 50 μM) and cell viability was determined using the ALAMARBLUE® dye as described above.
Trypanosoma brucei cytotoxicity of JC-229 and analogs were measured using ALAMARBLUE® assay (Rampersad, S. N. Multiple applications of ALAMARBLUE® as an indicator of metabolic function and cellular health in cell viability bioassays. Sensors (Basel) 12, 12347-12360 (2012). Trypanosome cells were seeded at 1×10^3 cells/ml density in 180 μl in a 96-well culture plate in triplicate. These cells were incubated with indicated concentration of JC compounds for 72 hours. DMSO was used as a vehicle control at 0.0075%. JC compound-treated cultures were then incubated with ALAMARBLUE® dye for 4-6 hours and percentage of live cells was determined using Synergy H1 microplate reader (BioTek) with 560/590 nm (excitation/emission) filter settings and Relative Fluorescence Unit (RFU) values were obtained. The percentage of viable cells were calculated from the RFU values by normalizing to DMSO treated control. In one embodiment, the inhibitor is characterized in that it provides at least 50%, at least 80% or at least 90% inhibition at a concentration of 5 μM when tested in accordance with the above conditions.

SMILES | % Inhibition @2 μM [%] | % Inhibition @10 μM [%] | % Inhibition @5 μM [%]
Cc1ccc(C(=O)Nc2ccc(Cl)c(Cl)c2)cc1S(=O)(=O)NCCCCCCO [JC-898] | 6 | 57 | –
Cc1ccc(C(=O)Nc2ccc(Cl)c(Cl)c2)cc1S(=O)(=O)Nc1cc(C(F)(F)F)n[nH]1 [JC-874] | 1 | 97 | 51.8
Cc1ccc(C(=O)Nc2ccc(Cl)c(Cl)c2)cc1S(=O)(=O)NCCCCCO [JC-897] | 0 | 36 | –
Cc1ccc(C(=O)Nc2ccc(Cl)c(Cl)c2)cc1S(=O)(=O)NCCNS(=O)(=O)c1ccc(Br)cc1C(F)(F)F [JC-995] | −34 | – | 93
Cc1ccc(C(=O)Nc2ccc(Cl)c(Cl)c2)cc1S(=O)(=O)N1CCC(F)(F)CC1 [JC-886] | 3 | 100 | 93.7
Cc1ccc(C(=O)Nc2ccc(Cl)c(Cl)c2)cc1S(=O)(=O)NC1CC(N)C1 (stereo not drawn) [JC-957] | −30 | – | 84
Cc1ccc(C(=O)Nc2ccc(Cl)c(Cl)c2)cc1S(=O)(=O)NCCNS(=O)(=O)c1cccc(Br)c1 [JC-994] | −17 | – | 61
Cc1ccc(C(=O)Nc2ccc(Cl)c(Cl)c2)cc1S(=O)(=O)NCCO [JC-872] | −13 | 21 | –
Cc1ccc(C(=O)Nc2ccc(Cl)c(Cl)c2)cc1S(=O)(=O)NCc1nc2c(F)c(F)ccc2[nH]1.O=C(O)C(F)(F)F [JC-903] | 11 | 37 | –
Cc1ccc(C(=O)Nc2ccc(Cl)c(Cl)c2)cc1S(=O)(=O)NCCNS(=O)(=O)c1ccc(CBr)cc1 [JC-993] | 76 | – | 100
Cc1ccc(C(=O)Nc2ccc(Cl)c(Cl)c2)cc1S(=O)(=O)NCCCNC(=O)OC(C)(C)C [JC-932] | 7 | 73 | –
Cc1ccc(C(=O)Nc2ccc(Cl)c(Cl)c2)cc1S(=O)(=O)C1CCCC(NC(=O)OC(C)(C)C)C1 (stereo not drawn) [JC-954] | 10 | – | 35
O=C(Nc1ccc(Cl)c(Cl)c1)c1ccc(Br)c(S(=O)(=O)Nc2ccc(Cl)c(Cl)c2)c1 [JC-855] | −5 | 89 | –
Cc1ccc(C(=O)NCc2ccccc2)cc1S(=O)(=O)Nc1ccc(Cl)c(Cl)c1 [JC-856] | −7 | 22 | –
Cc1ccc(C(=O)Nc2ccc(Cl)c(Cl)c2)cc1S(=O)(=O)N1CCCC(NC(=S)Nc2ccccc2F)C1 (stereo not drawn) [JC-1006] | 17 | – | 101
Cc1ccc(C(=O)Nc2ccc(Cl)c(Cl)c2)cc1S(=O)(=O)NCCc1ccccc1 [JC-854] | −27 | 14 | –
Cc1ccc(C(=O)Nc2ccc(Cl)c(Cl)c2)cc1S(=O)(=O)NCCNC(=O)[C@H](N)Cc1ccccc1 [JC-922] | −7 | 19 | –
Cc1ccc(C(=O)Nc2ccc(Cl)c(Cl)c2)cc1S(=O)(=O)N1CCCC(NC(=S)Nc2ccc(C(F)(F)F)cc2)C1 (stereo not drawn) [JC-1008] | 100 | – | 100
Cc1ccc(C(=O)Nc2nc3ccccc3[nH]2)cc1S(=O)(=O)Nc1ccc(Cl)c(Cl)c1 [JC-865] | −1 | 55 | –
Cc1ccc(C(=O)Nc2ccc(Cl)c(Cl)c2)cc1S(=O)(=O)N1CCC(NS(C)(=O)=O)CC1 [JC-969] | 18 | – | −4
Cc1ccc(C(=O)Nc2ccc(Cl)c(Cl)c2)cc1S(=O)(=O)NCCCNC(=O)c1ccccc1 [JC-935] | 3 | 19 | –
Cc1ccc(C(=O)Nc2ccc(Cl)c(Cl)c2)cc1S(=O)(=O)C1CCCNC1.O=C(O)C(F)(F)F (stereo not drawn) [JC-951] | 29 | – | 100
Cc1ccc(C(=O)Nc2ccc(Cl)c(Cl)c2)cc1S(=O)(=O)N1CCC(NC(=O)OC(C)(C)C)CC1 [JC-896] | 17 | 92 | 69.4

SMILES | % Inhibition @2 μM [%] | % Inhibition @10 μM [%] | % Inhibition @5 μM [%]
Cc1ccc(C(=O)Nc2ccc(Cl)c(Cl)c2)cc1S(=O)(=O)NCCCCO [JC-895] | 10 | 45 | –
Cc1ccc(C(=O)Nc2ccc(Cl)c(Cl)c2)cc1S(=O)(=O)N1CCC(NS(=O)(=O)c2cccc(F)c2)CC1 [JC-1012] | 36 | – | 97
Cc1ccc(C(=O)Nc2ccc(Cl)c(Cl)c2)cc1S(=O)(=O)NNc1ccccc1 [JC-868] | 1 | 20 | –
Cc1ccc(C(=O)Nc2ccc(Cl)c(Cl)c2)cc1S(=O)(=O)N1CCC(NS(=O)(=O)c2ccc(Br)cc2C(F)(F)F)CC1 [JC-1011] | 63 | – | 101
Cc1ccc(C(=O)Nc2ccc(Cl)c(Cl)c2)cc1S(=O)(=O)N1CCC(NC(=S)Nc2ccccc2F)CC1 [JC-1018] | 100 | – | 100
COc1ccc(NC(=S)NC2CCN(S(=O)(=O)c3cc(C(=O)Nc4ccc(Cl)c(Cl)c4)ccc3C)CC2)cc1 [JC-1016] | 52 | – | 100
Cc1ccc(C(=O)Nc2ccc(Cl)c(Cl)c2)cc1S(=O)(=O)NC(CO)(CO)CO [JC-893] | 2 | −5 | –
Cc1ccc(C(=O)Nc2ccc(Cl)c(Cl)c2)cc1S(=O)(=O)NCCNC(=S)Nc1ccc(C(F)(F)F)cc1 [JC-1003] | 0 | – | 80
Cc1ccc(C(=O)Nc2ccc(Cl)c(Cl)c2)cc1S(=O)(=O)Nc1cccc([N+](=O)[O-])c1N [JC-899] | 3 | 14 | –
Cc1ccc(C(=O)Nc2ccc(Cl)c(Cl)c2)cc1S(=O)(=O)NCCCNS(=O)(=O)c1ccc(Br)cc1 [JC-998] | 0 | – | 100
Cc1ccc(C(=O)Nc2ccc(Cl)c(Cl)c2)cc1S(=O)(=O)Nc1ccc(O)cc1 [JC-912] | −5 | 58 | –
Cc1ccc(C(=O)Nc2ccc(Cl)c(Cl)c2)cc1S(=O)(=O)N1CCCC(NS(C)(=O)=O)C1 (stereo not drawn) [JC-964] | −16 | – | −23
Cc1ccc(C(=O)Nc2ccc(Cl)c(Cl)c2)cc1S(=O)(=O)NCCNC(=O)c1ccccc1 [JC-920] | −5 | −9 | –
Cc1ccc(C(=O)Nc2ccc(Cl)c(Cl)c2)cc1S(=O)(=O)C1CCC(NC(=O)c2ccccc2)CC1 (stereo not drawn) [JC-927] | 0 | 100 | 42.4
Cc1ccc(C(=O)Nc2ccc(Cl)c(Cl)c2)cc1S(=O)(=O)NCCNC(=O)Cc1ccccc1 [JC-953] | −34 | – | 32
Cc1ccc(C(=O)Nc2ccc(Cl)c(Cl)c2)cc1S(=O)(=O)NCCNC(=S)Nc1ccc(Cl)c(Cl)c1 [JC-1002] | 34 | – | 100
Cc1ccc(C(=O)Nc2ccc(Cl)c(Cl)c2)cc1S(=O)(=O)N1CCC(NC(=S)Nc2cccc(C(F)(F)F)c2)CC1 [JC-1017] | 100 | – | 100
Cc1cc(NS(=O)(=O)c2cc(C(=O)Nc3ccc(Cl)c(Cl)c3)ccc2C)n[nH]1 [JC-894] | −4 | 2 | –
Cc1ccc(C(=O)Nc2ccc(Cl)c(Cl)c2)cc1S(=O)(=O)NCCNC(=S)Nc1cccc(C(F)(F)F)c1 [JC-1000] | 21 | – | 58
Cc1ccc(C(=O)Nc2ccc(Cl)c(Cl)c2)cc1S(=O)(=O)Nc1cnc2ccccc2c1 [JC-914] | −7 | −3 | –
COc1ccc(NC(=S)NCCNS(=O)(=O)c2cc(C(=O)Nc3ccc(Cl)c(Cl)c3)ccc2C)cc1 [JC-999] | −7 | – | −6
COc1ccc(NC(=S)NC2CCCN(S(=O)(=O)c3cc(C(=O)Nc4ccc(Cl)c(Cl)c4)ccc3C)C2)cc1 (stereo not drawn) [JC-1004] | 32 | – | 94
Cc1ccc(C(=O)N[C@@H](Cc2ccccc2)C(N)=O)cc1S(=O)(=O)Nc1ccc(Cl)c(Cl)c1 [JC-862] | −19 | 27 | –

From patent US20250188033A1, “INHIBITOR OF REPLICATION PROTEIN A1 OF TRYPANOSOMA BRUCEI AND METHOD OF USE THEREOF” (Research Foundation of the City University of New York, published 2025)
